Activity calls are given as the source filed them. No cut-off for these calls is given here.
Columns and labels:
H69AR [1] = assay: Antiproliferative activity against human NCI-H69AR cells by SRB assay; assay type: functional, cell-based
H69AR [2] = assay: Induction of cell cycle arrest in human NCI-H69AR cells assessed as increase in number of cells in G0/G1 phase at 0 to 8 uM measured after 24 hrs by flow cytometry analysis; assay type: functional, cell-based; conditions: dose 0-8 µM
H69AR [3] = assay: Induction of apoptosis in human NCI-H69AR cells assessed as live cells at 4 micromol/L measured after 48 hrs by Annexin V-FITC/PI staining based flow cytometry analysis (reference value: 97.7%); assay type: functional; conditions: dose 4 µmol/L, at 4 µM
H69AR [4] = assay: Induction of apoptosis in human NCI-H69AR cells assessed as dead cells at 2 micromol/L measured after 48 hrs by Annexin V-FITC/PI staining based flow cytometry analysis (reference value: 0%); assay type: functional; conditions: dose 2 µmol/L, at 2 µM
A549 = assay: Antiproliferative activity against human A549 cells by SRB assay; assay type: functional, cell-based
H69AR [5] = assay: Induction of apoptosis in human NCI-H69AR cells assessed as late apoptotic cells at 8 micromol/L measured after 48 hrs by Annexin V-FITC/PI staining based flow cytometry analysis (reference value: 0.38%); assay type: functional; conditions: dose 8 µmol/L, at 8 µM
H69AR [6] = assay: Induction of apoptosis in human NCI-H69AR cells assessed as live cells at 2 micromol/L measured after 48 hrs by Annexin V-FITC/PI staining based flow cytometry analysis (reference value: 97.7%); assay type: functional; conditions: dose 2 µmol/L, at 2 µM
H69AR [7] = assay: Induction of apoptosis in human NCI-H69AR cells assessed as dead cells at 8 micromol/L measured after 48 hrs by Annexin V-FITC/PI staining based flow cytometry analysis (reference value: 0%); assay type: functional; conditions: dose 8 µmol/L, at 8 µM
H69AR [8] = assay: Induction of apoptosis in human NCI-H69AR cells assessed as early apoptotic cells at 4 micromol/L measured after 48 hrs by Annexin V-FITC/PI staining based flow cytometry analysis (reference value: 1.96%); assay type: functional; conditions: dose 4 µmol/L, at 4 µM
H69AR [9] = assay: Induction of apoptosis in human NCI-H69AR cells assessed as dead cells at 4 micromol/L measured after 48 hrs by Annexin V-FITC/PI staining based flow cytometry analysis (reference value: 0%); assay type: functional; conditions: dose 4 µmol/L, at 4 µM
H69AR [10] = assay: Induction of apoptosis in human NCI-H69AR cells assessed as increase in cleaved caspase-8 protein expression by Western blot analysis; assay type: functional, cell-based; conditions: dose 0.5-8 µmol/L
H69AR [11] = assay: Induction of apoptosis in human NCI-H69AR cells assessed as reduction in XIAP protein expression by Western blot analysis; assay type: functional, cell-based; conditions: dose 0.5-8 µmol/L
H69AR [12] = assay: Inhibition of colony formation in human NCI-H69AR cells; assay type: functional, cell-based; conditions: dose 0-8 µM
H69AR [13] = assay: Induction of cell cycle arrest in human NCI-H69AR cells assessed as reduction in number of cells in S phase measured after 24 hrs by flow cytometry analysis; assay type: functional, cell-based; conditions: dose 0-8 µM
H69AR [14] = assay: Induction of apoptosis in human NCI-H69AR cells assessed as late apoptotic cells at 2 micromol/L measured after 48 hrs by Annexin V-FITC/PI staining based flow cytometry analysis (reference value: 0.38%); assay type: functional; conditions: dose 2 µmol/L, at 2 µM
H69AR [15] = assay: Induction of apoptosis in human NCI-H69AR cells assessed as increase in BAX protein expression by Western blot analysis; assay type: functional, cell-based; conditions: dose 0.5-8 µmol/L
H69AR [16] = assay: Inhibition of colony formation in human NCI-H69AR cells at 8 uM relative to control; assay type: functional
H69AR [17] = assay: Induction of apoptosis in human NCI-H69AR cells assessed as increase in cleaved PARP protein expression by Western blot analysis; assay type: functional, cell-based; conditions: dose 0.5-8 µmol/L
H69AR [18] = assay: Induction of apoptosis in human NCI-H69AR cells assessed as late apoptotic cells at 4 micromol/L measured after 48 hrs by Annexin V-FITC/PI staining based flow cytometry analysis (reference value: 0.38%); assay type: functional; conditions: dose 4 µmol/L, at 4 µM
H69AR [19] = assay: Induction of apoptosis in human NCI-H69AR cells assessed as early apoptotic cells at 8 micromol/L measured after 48 hrs by Annexin V-FITC/PI staining based flow cytometry analysis (reference value: 1.96%); assay type: functional; conditions: dose 8 µmol/L, at 8 µM
NCI-H358 = assay: Antiproliferative activity against human NCI-H358 cells by SRB assay; assay type: functional, cell-based
H69AR [20] = assay: Induction of apoptosis in human NCI-H69AR cells assessed as early apoptotic cells at 2 micromol/L measured after 48 hrs by Annexin V-FITC/PI staining based flow cytometry analysis (reference value: 1.96%); assay type: functional; conditions: dose 2 µmol/L, at 2 µM
H69AR [21] = assay: Induction of apoptosis in human NCI-H69AR cells assessed as live cells at 8 micromol/L measured after 48 hrs by Annexin V-FITC/PI staining based flow cytometry analysis (reference value: 97.7%); assay type: functional; conditions: dose 8 µmol/L, at 8 µM
H69AR [22] = assay: Induction of apoptosis in human NCI-H69AR cells assessed as reduction in Bcl-2 protein expression by Western blot analysis; assay type: functional, cell-based; conditions: dose 0.5-8 µmol/L

SMILES: Cc1cc(C(=O)c2ccc(Cl)cc2Cl)c(O)c(Cc2[nH]c3ccccc3c2Cc2c(O)c(C)cc(C(=O)c3ccc(Cl)cc3Cl)c2O)c1O
- IC50 (H69AR [1]): 4 µM

SMILES: Cc1cc(C(=O)c2ccccc2Cl)c(O)c(Cc2[nH]c3ccccc3c2Cc2c(O)c(C)cc(C(=O)c3ccccc3Cl)c2O)c1O
- IC50 (H69AR [1]): 5.97 µM

SMILES: Cc1ccc(C(=O)c2cc(C)c(O)c(Cc3[nH]c4ccccc4c3Cc3c(O)c(C)cc(C(=O)c4ccc(C)cc4)c3O)c2O)cc1
- IC50 (H69AR [1]): 3.41 µM

SMILES: Cc1cc(C(=O)c2ccccc2Br)c(O)c(Cc2[nH]c3ccccc3c2Cc2c(O)c(C)cc(C(=O)c3ccccc3Br)c2O)c1O
- IC50 (H69AR [1]): 7 µM

SMILES: Cc1cc(C(=O)c2ccccc2)c(O)c(Cc2[nH]c3ccccc3c2Cc2c(O)c(C)cc(C(=O)c3ccccc3)c2O)c1O
- IC50 (H69AR [1]): 7.58 µM

SMILES: COc1ccc(C(=O)c2cc(C)c(O)c(Cc3[nH]c4ccccc4c3Cc3c(O)c(C)cc(C(=O)c4ccc(OC)cc4)c3O)c2O)cc1
- IC50 (H69AR [1]): 3.36 µM

SMILES: Cc1cc(C(=O)c2ccc(CCl)cc2)c(O)c(Cc2[nH]c3ccccc3c2Cc2c(O)c(C)cc(C(=O)c3ccc(CCl)cc3)c2O)c1O
- IC50 (H69AR [1]): 13.2 µM

SMILES: CC(=O)c1cc(C)c(O)c(Cc2[nH]c3ccccc3c2Cc2c(O)c(C)cc(C(C)=O)c2O)c1O
- IC50 (H69AR [1]): 42.5 µM

SMILES: Cc1cc(C(=O)CC(C)C)c(O)c(Cc2[nH]c3ccccc3c2Cc2c(O)c(C)cc(C(=O)CC(C)C)c2O)c1O
- IC50 (H69AR [1]): > 50 µM

SMILES: Cc1cc(C(=O)c2cccc(F)c2)c(O)c(Cc2[nH]c3ccccc3c2Cc2c(O)c(C)cc(C(=O)c3cccc(F)c3)c2O)c1O
- IC50 (H69AR [1]): 1.94 µM

SMILES: Cc1ccccc1C(=O)c1cc(C)c(O)c(Cc2[nH]c3ccccc3c2Cc2c(O)c(C)cc(C(=O)c3ccccc3C)c2O)c1O
- IC50 (H69AR [1]): 3.17 µM

SMILES: Cc1cc(C(=O)c2ccc(C(F)(F)F)cc2)c(O)c(Cc2[nH]c3ccccc3c2Cc2c(O)c(C)cc(C(=O)c3ccc(C(F)(F)F)cc3)c2O)c1O
- IC50 (H69AR [1]): 4.02 µM

SMILES: Cc1cc(C(=O)c2ccc(F)cc2)c(O)c(Cc2[nH]c3ccccc3c2Cc2c(O)c(C)cc(C(=O)c3ccc(F)cc3)c2O)c1O
- IC50 (H69AR [1]): 2.21 µM

SMILES: Cc1cccc(C(=O)c2cc(C)c(O)c(Cc3[nH]c4ccccc4c3Cc3c(O)c(C)cc(C(=O)c4cccc(C)c4)c3O)c2O)c1
- IC50 (H69AR [1]): 4.78 µM

SMILES: Cc1cc(C(=O)c2ccc(Br)cc2)c(O)c(Cc2[nH]c3ccccc3c2Cc2c(O)c(C)cc(C(=O)c3ccc(Br)cc3)c2O)c1O
- Activity (H69AR [2]): Active
- Activity (H69AR [3]): 82.9%
- Activity (H69AR [4]): 0.01%
- IC50 (A549): 21.2 µM
- Activity (H69AR [5]): 8.22%
- Activity (H69AR [6]): 92.9%
- IC50 (H69AR [1]): 1.58 µM
- Activity (H69AR [7]): 0.46%
- Activity (H69AR [8]): 11.3%
- Activity (H69AR [9]): 0.057%
- Activity (H69AR [10]): Dose-Dependent Effect
- Activity (H69AR [11]): Dose-Dependent Effect
- inhibition (H69AR [12]): Dose-Dependent Effect
- Activity (H69AR [13]): Dose-Dependent Effect
- Activity (H69AR [14]): 2.24%
- Activity (H69AR [15]): Dose-Dependent Effect
- inhibition at 8 µM (H69AR [16]): 100%
- Activity (H69AR [17]): Dose-Dependent Effect
- Activity (H69AR [18]): 5.7%
- Activity (H69AR [19]): 28.5%
- IC50 (NCI-H358): 35.8 µM
- Activity (H69AR [20]): 4.85%
- Activity (H69AR [21]): 62.8%
- Activity (H69AR [22]): Dose-Dependent Effect

SMILES: Cc1cc(C(=O)c2ccccc2F)c(O)c(Cc2[nH]c3ccccc3c2Cc2c(O)c(C)cc(C(=O)c3ccccc3F)c2O)c1O
- IC50 (H69AR [1]): 5.34 µM

SMILES: Cc1cc(C(=O)c2ccc(Cl)cc2)c(O)c(Cc2[nH]c3ccccc3c2Cc2c(O)c(C)cc(C(=O)c3ccc(Cl)cc3)c2O)c1O
- IC50 (H69AR [1]): 1.64 µM

SMILES: CCc1cc(C(C)=O)c(O)c(Cc2[nH]c3ccccc3c2Cc2c(O)c(CC)cc(C(C)=O)c2O)c1O
- IC50 (H69AR [1]): > 50 µM

SMILES: CCC(=O)c1cc(C)c(O)c(Cc2[nH]c3ccccc3c2Cc2c(O)c(C)cc(C(=O)CC)c2O)c1O
- IC50 (H69AR [1]): > 50 µM

SMILES: Cc1cc(C(=O)c2cccc(Br)c2)c(O)c(Cc2[nH]c3ccccc3c2Cc2c(O)c(C)cc(C(=O)c3cccc(Br)c3)c2O)c1O
- IC50 (H69AR [1]): 1.86 µM

SMILES: COc1cccc(C(=O)c2cc(C)c(O)c(Cc3[nH]c4ccccc4c3Cc3c(O)c(C)cc(C(=O)c4cccc(OC)c4)c3O)c2O)c1
- IC50 (H69AR [1]): 4.25 µM

SMILES: Cc1cc(C(=O)c2ccc3ccccc3c2)c(O)c(Cc2[nH]c3ccccc3c2Cc2c(O)c(C)cc(C(=O)c3ccc4ccccc4c3)c2O)c1O
- IC50 (H69AR [1]): 41.5 µM

SMILES: Cc1cc(C(=O)c2cccc(Cl)c2)c(O)c(Cc2[nH]c3ccccc3c2Cc2c(O)c(C)cc(C(=O)c3cccc(Cl)c3)c2O)c1O
- IC50 (H69AR [1]): 2.81 µM
